Results reported in patent US11999727B2 (Tango Therapeutics, Inc., priority 2020, dated 2024).
Read-outs that look alike come from different tables or passages of the source.

Assays:
[1] = tested on: HAP1 MTAP-deleted cell line; assay: Viability assay, MTAP-deleted cell line; format: cell-based; conditions: Homo sapiens
Source text: Table 1 additionally indicates IC50 values in a viability assay for the MTAP-deleted cell line (column 10), indicating the effect of treatment with compound on cell survival.

[2] = molecular target: T1, PRMT5 (Homo sapiens, UniProt O14744); assay: PRMT5 biochemical IC50 assay with MTA as cofactor; conditions: PRMT5, MTA as cofactor; read-out: MTA IC50
T1 construct: purchased Viva (custom protein)
T1 sequence (O14744 whole entry): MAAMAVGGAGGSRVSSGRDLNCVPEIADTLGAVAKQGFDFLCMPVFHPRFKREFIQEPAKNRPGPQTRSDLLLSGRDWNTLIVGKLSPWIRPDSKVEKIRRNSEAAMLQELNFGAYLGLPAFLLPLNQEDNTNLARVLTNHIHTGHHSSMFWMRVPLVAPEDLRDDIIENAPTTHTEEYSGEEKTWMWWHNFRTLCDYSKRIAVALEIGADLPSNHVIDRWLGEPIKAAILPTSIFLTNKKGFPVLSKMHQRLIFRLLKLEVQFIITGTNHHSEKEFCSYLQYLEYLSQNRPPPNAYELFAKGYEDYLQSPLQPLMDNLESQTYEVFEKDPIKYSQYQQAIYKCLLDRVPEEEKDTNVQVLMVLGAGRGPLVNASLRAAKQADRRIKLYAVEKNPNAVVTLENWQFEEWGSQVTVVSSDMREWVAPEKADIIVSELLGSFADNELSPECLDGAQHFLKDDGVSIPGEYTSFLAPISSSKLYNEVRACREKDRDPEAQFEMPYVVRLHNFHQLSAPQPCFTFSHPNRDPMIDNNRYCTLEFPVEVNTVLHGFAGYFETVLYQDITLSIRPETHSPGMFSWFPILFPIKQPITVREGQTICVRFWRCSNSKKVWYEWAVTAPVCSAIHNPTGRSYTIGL
T1 sequence (Q9BQA1 whole entry partner): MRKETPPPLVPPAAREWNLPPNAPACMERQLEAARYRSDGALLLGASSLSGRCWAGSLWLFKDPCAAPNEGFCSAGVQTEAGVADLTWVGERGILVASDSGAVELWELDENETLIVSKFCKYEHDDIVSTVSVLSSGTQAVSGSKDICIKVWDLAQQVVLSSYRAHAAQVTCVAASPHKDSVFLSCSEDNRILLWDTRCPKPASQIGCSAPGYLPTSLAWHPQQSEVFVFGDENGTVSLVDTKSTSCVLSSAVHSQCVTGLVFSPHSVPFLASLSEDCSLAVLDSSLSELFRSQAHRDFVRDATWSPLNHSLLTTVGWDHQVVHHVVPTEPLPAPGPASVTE

[3] = tested on: HAP1 MTAP-deleted cell line; assay: SDMA in-cell western assay, HAP1 MTAP-deleted; format: cell-based; conditions: for IC50: Homo sapiens; for MTAP intact/deleted ratio: IC50 ratio HAP1 MTAP-intact vs HAP1 MTAP-deleted, SDMA in-cell western
In short: (§1)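 Isogenic HAP1 pair: the MTAP-intact line expresses endogenous MTAP, and the deleted line is MTAP-null. Symmetric dimethylarginine was detected by in-cell western and IC50 values derived for each line.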

[4] = molecular target: T1, PRMT5; assay: PRMT5 biochemical IC50 assay with no cofactor; conditions: PRMT5, no cofactor; read-out: No Cofactor/rel IC50
Source text: Table 1 indicates IC50 values (μM) against PRMT5 for exemplary compounds in the presence of SAM as cofactor, with no cofactor, and with MTA as cofactor, respectively (columns 4-6). […] Ki values can be calculated from the IC50 values as described in the Examples section. As detailed in the Examples section, for the assay performed in the presence of SAM, IC50=Ki×1.5 (Ki=IC50/1.5).

[5] = molecular target: T1, PRMT5; assay: PRMT5 biochemical IC50 assay with SAM as cofactor; conditions: PRMT5, SAM as cofactor; read-out: SAM IC50
[6] = tested on: HAP1 MTAP-intact cell line; assay: SDMA in-cell western assay, HAP1 MTAP-intact; format: cell-based; conditions: Homo sapiens
In short: as §1

[7] = HAP1, viability assay, MTAP-deleted cell line, read-out: HAP1 MTAP deleted viability
[8] = HAP1, SDMA in-cell western, HAP1 MTAP-deleted, read-out: HAP1 MTAP deleted IC50
[9] = HAP1, SDMA in-cell western, HAP1 MTAP-intact, read-out: MTAP HAP1 intact IC50

Compound	IC50 [2]	IC50 [3, 8]	IC50 [4]	IC50 [5]	IC50 [6, 9]	IC50 [1, 7]	MTAP intact/deleted ratio [3]	IC50 ([1]; HAP1, read-out: HAP1 MTAP deleted viability)	IC50 ([3]; HAP1, read-out: HAP1 MTAP deleted IC50)	IC50 ([6]; HAP1, read-out: MTAP HAP1 intact IC50)
C[C@H]1CC[C@H](c2ccc3sc(CCN(C)C)nc3c2)N(C(=O)C(=O)Nc2cncc(C(N)=O)c2)C1 (single isomer, unassigned) [Compound 1128]	> 500 nM	100 to 1000 nM	> 500 nM	> 500 nM	> 1000 nM	1000 to 10000 nM	–	–	–	–
CO[C@@H]1C[C@@H](c2ccc3scnc3c2)N(C(=O)C(=O)Nc2cnc(N)c(C)c2)C[C@@H]1C (single isomer, unassigned) [Compound 1130]	> 500 nM	> 1000 nM	> 500 nM	> 500 nM	> 1000 nM	> 10000 nM	–	–	–	–
CCc1cc(NC(=O)C(=O)N2CC(C)CCC2c2ccc(N3CCC4C(CCCN4C)C3)cc2)cnc1N (single isomer, unassigned) [Compound 1132]	< 50 nM	< 100 nM	< 50 nM	50 to 500 nM	100 to 1000 nM	< 1000 nM	A (an IC50 ratio greater than or equal to 10 fold)	–	–	–
Cc1cc(NC(=O)C(=O)N2C[C@@H](C)CC[C@@H]2c2ccc3sc([C@H]4CCN(C)C(C)(C)C4)nc3c2)cnc1C (single isomer, unassigned) [Compound 1135]	< 50 nM	< 100 nM	< 50 nM	< 50 nM	100 to 1000 nM	< 1000 nM	A (an IC50 ratio greater than or equal to 10 fold)	–	–	–
CCc1cc(NC(=O)C(=O)N2C[C@H](C)[C@H](OC)C[C@H]2c2ccc3scnc3c2)cnc1N (single isomer, unassigned) [Compound 1138]	> 500 nM	100 to 1000 nM	> 500 nM	> 500 nM	> 1000 nM	1000 to 10000 nM	–	–	–	–
CCc1cc(NC(=O)C(=O)N2C[C@@H](C)CC[C@@H]2c2ccc(N3CC[C@@H]4CCN(C)C[C@@H]4C3)cc2)cnc1N (single isomer, unassigned) [Compound 1144]	< 50 nM	< 100 nM	< 50 nM	50 to 500 nM	100 to 1000 nM	< 1000 nM	A (an IC50 ratio greater than or equal to 10 fold)	–	–	–
CCc1cc(NC(=O)C(=O)N2C[C@H](C)CC[C@H]2c2ccc(N3CCOC4(CN(C)C4)C3)cc2)cnc1N (single isomer, unassigned) [Compound 1150]	> 500 nM	> 1000 nM	> 500 nM	> 500 nM	> 1000 nM	> 10000 nM	–	–	–	–
C[C@H]1CC[C@H](c2ccc3sncc3c2)N(C(=O)C(=O)Nc2cnc(N)c(C3CC3)c2)C1 (single isomer, unassigned) [Compound 1153]	< 50 nM	–	< 50 nM	50 to 500 nM	–	–	A (an IC50 ratio greater than or equal to 10 fold)	< 1000 nM	< 100 nM	100 to 1000 nM
C[C@H]1CC[C@H](c2ccc3sc(C4CCN(C)CC4)nc3c2)N(C(=O)C(=O)Nc2cnc(N)c([C@@H]3CCOC3)c2)C1 (single isomer, unassigned) [Compound 1154]	< 50 nM	< 100 nM	< 50 nM	< 50 nM	< 100 nM	< 1000 nM	A (an IC50 ratio greater than or equal to 10 fold)	–	–	–
C[C@@H]1CC[C@@H](c2ccc3nn(CCN(C)C)cc3c2)N(C(=O)C(=O)Nc2cnc(N)c(C3CC3)c2)C1 (single isomer, unassigned) [Compound 1156]	< 50 nM	< 100 nM	< 50 nM	< 50 nM	< 100 nM	< 1000 nM	A (an IC50 ratio greater than or equal to 10 fold)	–	–	–
Cc1cc(NC(=O)C(=O)N2C[C@@H](C)[C@@H](CC(C)C)C[C@@H]2c2ccc3scnc3c2)cnc1N (single isomer, unassigned) [Compound 1157]	> 500 nM	> 1000 nM	> 500 nM	> 500 nM	> 1000 nM	> 10000 nM	–	–	–	–
CO[C@@H]1C[C@@H](c2ccc3scnc3c2)N(C(=O)C(=O)Nc2cncc(C(N)=O)c2)C[C@@H]1C (single isomer, unassigned) [Compound 1161]	< 50 nM	< 100 nM	< 50 nM	50 to 500 nM	100 to 1000 nM	< 1000 nM	A (an IC50 ratio greater than or equal to 10 fold)	–	–	–
CCc1cc(NC(=O)C(=O)N2[C@@H](C)CCC[C@H]2c2ccc3sc(C4CCN(C)CC4)nc3c2)cnc1N (single isomer, unassigned) [Compound 1173]	< 50 nM	< 100 nM	< 50 nM	50 to 500 nM	< 100 nM	< 1000 nM	A (an IC50 ratio greater than or equal to 10 fold)	–	–	–
Cc1cc(NC(=O)C(=O)N2C[C@H](C)CC[C@H]2c2ccc3c(cnn3CCN(C)C)c2)cnc1N (single isomer, unassigned) [Compound 1182]	< 50 nM	< 100 nM	< 50 nM	< 50 nM	< 100 nM	< 1000 nM	B (an IC50 ratio greater than or equal to 3 fold but lower than 10 fold)	–	–	–
Cc1cc(NC(=O)C(=O)N2C[C@H](C)[C@H](CC(C)C)C[C@H]2c2ccc3scnc3c2)cnc1N (single isomer, unassigned) [Compound 1190]	< 50 nM	< 100 nM	< 50 nM	50 to 500 nM	100 to 1000 nM	< 1000 nM	A (an IC50 ratio greater than or equal to 10 fold)	–	–	–

More lines, main results first:

IC50 [2]	IC50 [3, 8]	IC50 [4]	IC50 [5]	IC50 [6, 9]	Compound	IC50 [1, 7]	MTAP intact/deleted ratio [3]	IC50 ([1]; HAP1, read-out: HAP1 MTAP deleted viability)	IC50 ([3]; HAP1, read-out: HAP1 MTAP deleted IC50)	IC50 ([6]; HAP1, read-out: MTAP HAP1 intact IC50)
< 50 nM	< 100 nM	< 50 nM	50 to 500 nM	< 100 nM	CCc1cc(NC(=O)C(=O)N2C[C@@H](C)CC[C@@H]2c2ccc3sc([C@H]4CCN(C)C(C)(C)C4)nc3c2)cnc1N (single isomer, unassigned) [Compound 1129]	< 1000 nM	B (an IC50 ratio greater than or equal to 3 fold but lower than 10 fold)	–	–	–
> 500 nM	> 1000 nM	> 500 nM	> 500 nM	> 1000 nM	CCc1cc(NC(=O)C(=O)N2C[C@H](C)CC[C@H]2c2ccc3sc(CCN(C)C)nc3c2)cnc1N (single isomer, unassigned) [Compound 1133]	1000 to 10000 nM	–	–	–	–
< 50 nM	< 100 nM	< 50 nM	50 to 500 nM	100 to 1000 nM	CCc1cc(NC(=O)C(=O)N2C[C@@H](C)CC[C@@H]2c2ccc3sc([C@H]4CCN(C)C(=O)C4)nc3c2)cnc1N (single isomer, unassigned) [Compound 1136]	< 1000 nM	A (an IC50 ratio greater than or equal to 10 fold)	–	–	–
< 50 nM	< 100 nM	< 50 nM	< 50 nM	< 100 nM	COc1ncc(NC(=O)C(=O)N2C[C@@H](C)CC[C@@H]2c2ccc3sc(CCN(C)C)nc3c2)cc1C(N)=O (single isomer, unassigned) [Compound 1146]	< 1000 nM	A (an IC50 ratio greater than or equal to 10 fold)	–	–	–
< 50 nM	< 100 nM	< 50 nM	50 to 500 nM	< 100 nM	Cc1cc(NC(=O)C(=O)N2C[C@@H](C)CC[C@@H]2c2ccc3snc(C)c3c2)cnc1N (single isomer, unassigned) [Compound 1166]	< 1000 nM	B (an IC50 ratio greater than or equal to 3 fold but lower than 10 fold)	–	–	–
< 50 nM	< 100 nM	< 50 nM	50 to 500 nM	100 to 1000 nM	Cc1nc2cc([C@@H]3CC[C@H](C)CN3C(=O)C(=O)Nc3cnc(N)c(C)c3)ccc2o1 (single isomer, unassigned) [Compound 1170]	< 1000 nM	A (an IC50 ratio greater than or equal to 10 fold)	–	–	–
> 500 nM	> 1000 nM	> 500 nM	> 500 nM	> 1000 nM	COCCc1nc2cc([C@H]3CC[C@H](C)CN3C(=O)C(=O)Nc3cnc(N)c(C4CC4)c3)ccc2s1 (single isomer, unassigned) [Compound 1176]	> 10000 nM	–	–	–	–
< 50 nM	< 100 nM	< 50 nM	50 to 500 nM	< 100 nM	CCc1cc(NC(=O)C(=O)N2C[C@@H](C)CC[C@@H]2c2ccc3sc([C@H](C)N(C)C)nc3c2)cnc1N (single isomer, unassigned) [Compound 1188]	< 1000 nM	A (an IC50 ratio greater than or equal to 10 fold)	–	–	–
